{"source": "patent US5994369A", "about": "“Substituted piperidine or pyrrolidine compounds for treating sigma-receptor modulated disorders” (Byk Gulden Lomberg Chemische Fabrik GmbH, priority 1995, dated 1999)", "key": {"NMDA receptors": {"target": "NMDA receptors", "experiment": "NMDA receptor affinity (MK 801 binding)", "method": "The affinity and selectivity of the compounds described above in greater detail for sigma receptors in comparison with NMDA receptors were determined following published methods (Kornhuber et al.: Eur. J. Pharmacol. 162, 483-490, 1989 and Neurosci. Lett. 163, 129-131, 1993)."}, "Sigma receptors": {"target": "Sigma receptors (Homo sapiens, UniProt Q99720)", "sequence (Q99720 whole entry)": "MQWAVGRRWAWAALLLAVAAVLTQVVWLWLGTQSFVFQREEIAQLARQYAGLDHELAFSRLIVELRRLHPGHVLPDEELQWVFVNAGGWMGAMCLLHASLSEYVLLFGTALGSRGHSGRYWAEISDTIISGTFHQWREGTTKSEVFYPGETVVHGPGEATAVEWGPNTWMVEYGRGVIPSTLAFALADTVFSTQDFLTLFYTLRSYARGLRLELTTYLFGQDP", "experiment": "Sigma receptor affinity (pentazocine binding)"}}}
{"smiles": "NC12CC3CC(CC(C3)C1)C2", "note": "[Amantadine]", "values": [{"measurement": "Ki", "setting": "NMDA receptors", "value": 10.5, "unit": "µM"}]}
{"smiles": "CC12CC3CC(C)(C1)CC(N)(C3)C2", "note": "[Memantine]", "values": [{"measurement": "Ki", "setting": "Sigma receptors", "value": 20, "unit": "µM"}, {"measurement": "Ki", "setting": "NMDA receptors", "value": 0.5, "unit": "µM"}]}
{"smiles": "CC(C)(C)N1CCC(c2ccccc2)(c2ccccc2)CC1", "note": "[Budipine, budipine]", "values": [{"measurement": "Ki", "setting": "Sigma receptors", "value": 2, "unit": "µM"}, {"measurement": "Ki", "setting": "NMDA receptors", "value": 11.7, "unit": "µM"}]}
